# Data: patent publication US6972296B2, “Carboxylic acid derivatives that inhibit the binding of integrins to their receptors” (Encysive Pharmaceuticals Inc., priority 1999, dated 2005)
# Biological target: T1, α4β1 integrin (Homo sapiens, UniProt P05556+P13612)
# T1 construct: endogenous in cells; host or cells: Ramos cells
# Assay: Adhesion of calcein-labeled Ramos cells to CS1 (fibronectin) peptide conjugated ovalbumin
# Assay type: cell-based
# Settings: Ramos cell adhesion to CS1 conjugated ovalbumin
# Procedure, shortened: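 Plates bearing CS1 fibronectin peptide coupled to ovalbumin (0.5 μg/ml coat, 3% BSA block) received calcein-labelled Ramos cells plus compound (100 μM stated) for 30 min at 37 °C. Buffer was TBS pH 7.5 with 1 mM Mg2+, Ca2+, Mn2+; bound cells quantified by fluorescence after lysis; […].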
# [1] = Table 7, dose required to give 50% inhibition
# [2] = Table 5, dose required to give 50% inhibition
# T1 sequence (P13612 34-1032): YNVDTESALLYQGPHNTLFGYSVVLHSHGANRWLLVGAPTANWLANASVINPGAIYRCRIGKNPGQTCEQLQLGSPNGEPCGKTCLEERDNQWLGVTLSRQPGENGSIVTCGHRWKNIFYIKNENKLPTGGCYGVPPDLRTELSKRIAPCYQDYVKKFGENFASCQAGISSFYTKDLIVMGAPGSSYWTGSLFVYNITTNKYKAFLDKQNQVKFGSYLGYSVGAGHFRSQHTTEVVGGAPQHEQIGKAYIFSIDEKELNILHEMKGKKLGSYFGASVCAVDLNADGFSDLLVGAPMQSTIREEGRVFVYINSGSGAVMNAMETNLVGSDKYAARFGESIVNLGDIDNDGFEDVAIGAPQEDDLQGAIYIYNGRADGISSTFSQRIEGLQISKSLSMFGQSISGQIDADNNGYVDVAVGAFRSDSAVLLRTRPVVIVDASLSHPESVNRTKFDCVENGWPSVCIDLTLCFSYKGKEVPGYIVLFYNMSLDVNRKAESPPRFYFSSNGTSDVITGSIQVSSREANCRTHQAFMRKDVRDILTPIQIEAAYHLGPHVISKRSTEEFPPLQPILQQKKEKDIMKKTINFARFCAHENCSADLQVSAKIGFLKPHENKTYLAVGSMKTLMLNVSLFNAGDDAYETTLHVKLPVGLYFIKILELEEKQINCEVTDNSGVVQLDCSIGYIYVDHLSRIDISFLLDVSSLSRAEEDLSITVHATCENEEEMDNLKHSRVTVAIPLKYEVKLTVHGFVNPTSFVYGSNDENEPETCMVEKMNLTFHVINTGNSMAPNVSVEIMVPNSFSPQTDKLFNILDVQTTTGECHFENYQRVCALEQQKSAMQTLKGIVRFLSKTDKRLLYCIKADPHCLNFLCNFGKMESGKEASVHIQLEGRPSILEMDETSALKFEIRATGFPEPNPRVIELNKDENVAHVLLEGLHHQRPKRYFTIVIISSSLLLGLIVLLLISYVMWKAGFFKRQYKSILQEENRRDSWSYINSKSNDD
# T1 sequence (P05556 21-798): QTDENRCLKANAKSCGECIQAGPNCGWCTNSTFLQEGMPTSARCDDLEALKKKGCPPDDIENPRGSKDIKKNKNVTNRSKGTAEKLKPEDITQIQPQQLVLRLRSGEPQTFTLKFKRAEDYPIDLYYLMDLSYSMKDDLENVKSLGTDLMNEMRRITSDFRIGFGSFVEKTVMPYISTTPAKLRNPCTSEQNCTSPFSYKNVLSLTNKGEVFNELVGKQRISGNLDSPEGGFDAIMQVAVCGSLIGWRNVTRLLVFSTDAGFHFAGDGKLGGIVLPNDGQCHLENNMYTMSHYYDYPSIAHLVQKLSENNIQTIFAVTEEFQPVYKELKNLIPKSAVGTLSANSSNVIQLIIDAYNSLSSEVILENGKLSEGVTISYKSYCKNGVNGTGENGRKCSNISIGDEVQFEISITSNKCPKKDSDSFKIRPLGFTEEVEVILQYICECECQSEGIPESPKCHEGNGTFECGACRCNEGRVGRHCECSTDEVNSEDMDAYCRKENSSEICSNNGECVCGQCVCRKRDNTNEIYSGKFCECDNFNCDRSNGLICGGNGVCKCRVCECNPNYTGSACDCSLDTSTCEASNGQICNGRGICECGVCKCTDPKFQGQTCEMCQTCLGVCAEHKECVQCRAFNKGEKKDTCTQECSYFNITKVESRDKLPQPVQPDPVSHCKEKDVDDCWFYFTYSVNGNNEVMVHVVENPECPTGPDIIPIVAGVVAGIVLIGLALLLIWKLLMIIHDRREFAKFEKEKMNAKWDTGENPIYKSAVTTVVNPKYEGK
structure (smiles),measurement,setting,value
CCCc1ccc([C@H](CC(=O)O)NC(=O)Nc2c(O)c3c(n(Cc4c(C)cccc4Cl)c2=O)CCC3)cc1,IC50,[1],20 nM
Cc1cn(Cc2ccccc2Cl)c(=O)c(NC(=O)NC(CC(=O)O)c2cccc(N3CCCC3)c2)c1O (stereo not drawn),IC50,[1],10 nM
"O=C(O)C[C@H](NC(=O)Nc1cccn(Cc2cccs2)c1=O)c1ccc2c(c1)OCO2 [(3S)-3-(1,3-benzodioxol-5-yl)-3-[({[2-oxo-1-(2-thienylmethyl)-1,2-dihydro-3-pyridinyl]amino}carbonyl)amino]propanoic acid]",IC50,"Table 2, 30 minutes at 37° C.",900 nM
CCOc1cccc(Cl)c1Cn1nc(C)c(O)c(NC(=O)N[C@@H](CC(=O)O)c2cccc(OC(C)C)c2)c1=O,IC50,[1],2 nM
"CCOc1cccc(Cl)c1Cn1c(C)cc(O)c(NC(=O)N[C@@H](CC(=O)O)c2cccc(OC(C)C)c2)c1=O [(3S)-3-[({[1-(2-chloro-6-ethoxybenzyl)-4-hydroxy-6-methyl-2-oxo-1,2-dihydropyridin-3-yl]amino}carbonyl)amino]-3-(3-isopropoxyphenyl)propanoic acid]",IC50,[1],3 nM
COc1cccc(F)c1Cn1cc(C)c(O)c(NC(=O)N[C@@H](CC(=O)O)c2ccc(C)cc2)c1=O,IC50,"Table 6, 30 minutes at 37° C.",10 nM
"CCOc1cccc([C@H](CC(=O)O)NC(=O)Nc2c(O)ccn(Cc3c(Cl)cccc3OCC)c2=O)c1 [(3S)-3-[({[1-(2-chloro-6-ethoxybenzyl)-4-hydroxy-2-oxo-1,2-dihydropyridin-3-yl]amino}carbonyl)amino]-3-(3-ethoxyphenyl)propanoic acid]",IC50,"Table 6, 30 minutes at 37° C.",3 nM
O=C(O)C[C@H](NC(=O)Nc1cccn(Cc2cccs2)c1=O)c1cccc(C(F)(F)F)c1,IC50,"Table 4, 30 minutes at 37° C.",2500 nM
Cc1ccc([C@H](CC(=O)O)NC(=O)Nc2c(O)c(C)cn(Cc3cc(F)ccc3C)c2=O)cc1,IC50,"Table 6, 30 minutes at 37° C.",20 nM
Cc1ccc([C@H](CC(=O)O)NC(=O)Nc2c(O)c(C)c(C)n(Cc3ccccc3Cl)c2=O)cc1C,IC50,"Table 6, 30 minutes at 37° C.",40 nM
CC(C)c1ccc([C@H](CC(=O)O)NC(=O)Nc2c(O)c3c(n(Cc4ccccc4Cl)c2=O)CCC3)cc1,IC50,[1],17 nM
O=C(O)C[C@H](NC(=O)Nc1c(O)c2c(n(Cc3ccccc3Cl)c1=O)CCC2)c1cccc(OCC(F)(F)F)c1,IC50,"Table 6, 30 minutes at 37° C.",30 nM
CCCS(=O)(=O)Nc1ccn(Cc2ccccc2Cl)c(=O)c1NC(=O)N[C@@H](CC(=O)O)c1ccc(C)cc1,IC50,"Table 4, 30 minutes at 37° C.",30 nM
COc1ccc(Cl)c(Cn2cccc(NC(=O)N[C@@H](CC(=O)O)c3ccc(C)cc3)c2=O)c1,IC50,[2],90 nM
CCc1nn(Cc2ccccc2Cl)c(=O)c(NC(=O)N[C@@H](CC(=O)O)c2ccc(C)cc2)c1O,IC50,[1],22 nM
Cc1ccc([C@H](CC(=O)O)NC(=O)Nc2c(F)ccn(Cc3ccccc3Cl)c2=O)cc1,IC50,"Table 3, 30 minutes at 37° C.",15 nM
Cc1ccc([C@H](CC(=O)O)NC(=O)Nc2c(O)c3c(n(Cc4ccccc4Cl)c2=O)CCCCC3)cc1,IC50,[2],120 nM
Cc1ccc([C@H](CC(=O)O)NC(=O)Nc2cccn(Cc3cccs3)c2=O)cc1,IC50,"Table 4, 30 minutes at 37° C.",600 nM
CCOc1ccc([C@H](CC(=O)O)NC(=O)Nc2c(O)c(C)c(C)n(Cc3c(C)cccc3Cl)c2=O)cc1OCC,IC50,[2],4 nM
"O=C(O)CC(NC(=O)Nc1c(O)ccn(Cc2ccccc2Cl)c1=O)c1ccc2ccccc2c1 (stereo not drawn) [3-[({[1-(2-chlorobenzyl)-4-hydroxy-2-oxo-1,2-dihydropyridin-3-yl]amino}carbonyl)amino]-3-(2-naphthyl)propanoic acid]",IC50,[2],20 nM
"CCOc1cccc(Cl)c1Cn1ccc(O)c(NC(=O)N[C@@H](CC(=O)O)c2cccc(OC(C)C)c2)c1=O [(3S)-3-[({[1-(2-chloro-6-ethoxybenzyl)-4-hydroxy-2-oxo-1,2-dihydropyridin-3-yl]amino}carbonyl)amino]-3-(3-isopropoxyphenyl)propanoic acid]",IC50,[1],3 nM
CCCCN(C(=O)N[C@@H](CC(=O)O)c1ccc2c(c1)OCO2)c1cccn(Cc2cccs2)c1=O,IC50,"Table 2, 30 minutes at 37° C.",20000 nM
Cc1ccc([C@H](CC(=O)O)NC(=O)Nc2c(O)c(C)cn(Cc3cccc(Cl)c3)c2=O)cc1,IC50,"Table 6, 30 minutes at 37° C.",20 nM
COc1ccc([C@H](CC(=O)O)NC(=O)Nc2c(O)ccn(Cc3ccccc3Cl)c2=O)c(C)c1C,IC50,"Table 4, 30 minutes at 37° C.",35 nM
Cc1ccc([C@H](CC(=O)O)NC(=O)Nc2c(O)c(C)cn(Cc3ccccc3Cl)c2=O)cc1C,IC50,"Table 6, 30 minutes at 37° C.",15 nM
O=C(O)C[C@H](NC(=O)Nc1cccn(Cc2ccccc2Cl)c1=O)c1ccc2c(c1)OCO2,IC50,"Table 4, 30 minutes at 37° C.",300 nM
Cc1ccc([C@H](CC(=O)O)NC(=O)Nc2cccn(Cc3ccccc3C)c2=O)cc1,IC50,"Table 4, 30 minutes at 37° C.",100 nM
COc1cc([C@H](CC(=O)O)NC(=O)Nc2cccn(Cc3ccccc3Cl)c2=O)cc(OC)c1OC,IC50,"Table 4, 30 minutes at 37° C.",40 nM
CCOc1ccc(Cl)c(Cn2cc(C)c(O)c(NC(=O)N[C@@H](CC(=O)O)c3ccc(C)cc3)c2=O)c1,IC50,[1],4 nM
O=C(Nc1cccn(Cc2ccccc2Cl)c1=O)N[C@H](Cc1ccccc1)C(=O)O,IC50,"Table 4, 30 minutes at 37° C.",50000 nM
CCCOc1cccc([C@H](CC(=O)O)NC(=O)Nc2c(O)c3c(n(Cc4ccccc4Cl)c2=O)CCC3)c1,IC50,[1],15 nM
O=C(O)CC(NC(=O)Nc1c(O)ccn(Cc2ccccc2Cl)c1=O)c1ccc2ccccc2n1 (stereo not drawn),IC50,"Table 6, 30 minutes at 37° C.",105 nM
O=C(O)C[C@H](NC(=O)Nc1c(O)ccn(Cc2ccccc2Cl)c1=O)c1cccc(OC(F)(F)F)c1,IC50,[2],20 nM
COc1cccc(OC)c1-c1ccc([C@H](CC(=O)O)NC(=O)Nc2c(O)c(C)cn(Cc3ccccc3Cl)c2=O)cc1,IC50,[1],40 nM
CCOc1cccc(Cl)c1Cn1cc(C)c(O)c(NC(=O)NC(CC(=O)O)c2ccc3ccccc3c2)c1=O (stereo not drawn),IC50,[1],13 nM
"COc1cc(OC)cc([C@H](CC(=O)O)NC(=O)Nc2c(O)ccn(Cc3ccccc3Cl)c2=O)c1 [(3S)-3-[3,5-bis(methyloxy)phenyl]-3-{[({1-[(2-chlorophenyl)methyl]-4-hydroxy-2-oxo-1,2-dihydro-3-pyridinyl}amino)carbonyl]amino}propanoic acid]",IC50,"Table 3, 30 minutes at 37° C.",3 nM
"Cc1ccc([C@H](CC(=O)O)NC(=O)Nc2cnc(C)n(Cc3ccccc3)c2=O)cc1 [(3S)-3-[({[2-methyl-6-oxo-1-(phenylmethyl)-1,6-dihydro-5-pyrimidinyl]amino}carbonyl)amino]-3-(4-methylphenyl)propanoic acid]",IC50,"Table 4, 30 minutes at 37° C.",100 nM
"Cc1ccc([C@H](CC(=O)O)NC(=O)Nc2c(-c3ccccc3)ccn(Cc3ccccc3Cl)c2=O)cc1 [(3S)-3-{[({1-[(2-chlorophenyl)methyl]-2-oxo-4-phenyl-1,2-dihydro-3-pyridinyl}amino)carbonyl]amino}-3-(4-methylphenyl)propanoic acid]",IC50,"Table 3, 30 minutes at 37° C.",10 nM
CCCOc1cccc(Cl)c1Cn1cc(C)c(O)c(NC(=O)N[C@@H](CC(=O)O)c2cccc(OCC)c2)c1=O,IC50,[1],5 nM
"Cc1cccc(Cl)c1Cn1c2c(c(O)c(NC(=O)N[C@@H](CC(=O)O)c3cccc(NS(C)(=O)=O)c3)c1=O)CCC2 [(3S)-3-{[({1-[(2-chloro-6-methylphenyl)methyl]-4-hydroxy-2-oxo-2,5,6,7-tetrahydro-1H-cyclopenta[b]pyridin-3-yl}amino)carbonyl]amino}-3-{3-[(methylsulfonyl)amino]phenyl}propanoic acid]",IC50,[1],3 nM
Cc1cccc(Cl)c1Cn1c2c(c(O)c(NC(=O)N[C@@H](CC(=O)O)c3ccc4c(c3)CCC4)c1=O)CCC2,IC50,[1],10 nM
Cc1ccc([C@H](CC(=O)O)NC(=O)Nc2c(O)c(C)cn(Cc3c(Cl)cccc3OCC(C)C)c2=O)cc1,IC50,[1],22 nM
Cc1ccc([C@H](CC(=O)O)NC(=O)Nc2cccn(Cc3ccccc3-c3ccccc3)c2=O)cc1,IC50,"Table 4, 30 minutes at 37° C.",2500 nM
Cc1ccc([C@H](CC(=O)O)NC(=O)Nc2c(O)ccn(Cc3cc(F)ccc3F)c2=O)cc1,IC50,[2],15 nM
O=C(O)C[C@H](NC(=O)Nc1cccn(Cc2cccs2)c1=O)c1ccc(F)c(C(F)(F)F)c1,IC50,"Table 4, 30 minutes at 37° C.",350 nM
O=C(O)C[C@H](NC(=O)Nc1cccc(Oc2ccccc2)c1)c1ccc2c(c1)OCO2,IC50,"Table 4, 30 minutes at 37° C.",50000 nM
CCc1ccc([C@H](CC(=O)O)NC(=O)Nc2c(O)ccn(Cc3ccccc3Cl)c2=O)cc1CC,IC50,[2],50 nM
CCn1c2ccccc2c2cc([C@H](CC(=O)O)NC(=O)Nc3c(O)c4c(n(Cc5ccccc5Cl)c3=O)CCC4)ccc21,IC50,[1],13 nM
Cc1ccc([C@H](CC(=O)O)NC(=O)Nc2cnc(C)n(Cc3ccccc3Cl)c2=O)cc1,IC50,"Table 4, 30 minutes at 37° C.",90 nM
"Cc1ccc([C@H](CC(=O)O)NC(=O)Nc2c(NC(C)(C)C)ccn(Cc3ccccc3Cl)c2=O)cc1 [(3S)-3-{[({1-[(2-chlorophenyl)methyl]-4-[(1,1-dimethylethyl)amino]-2-oxo-1,2-dihydro-3-pyridinyl}amino)carbonyl]amino}-3-(4-methylphenyl)propanoic acid]",IC50,"Table 3, 30 minutes at 37° C.",3 nM
Cc1ccc([C@H](CC(=O)O)NC(=O)Nc2c(O)ccn(Cc3ccc(C(C)(C)C)cc3)c2=O)cc1,IC50,[2],30 nM
CCOc1ncc([C@H](CC(=O)O)NC(=O)Nc2c(O)c(C)cn(Cc3ccccc3Cl)c2=O)c(OCC)n1,IC50,[1],13 nM
O=C(O)C[C@H](NC(=O)Nc1c(O)c2c(n(Cc3ccccc3Cl)c1=O)CCC2)c1ccc(F)cc1,IC50,[1],9 nM
CSc1ccc(Cl)c(Cn2ccc(O)c(NC(=O)N[C@@H](CC(=O)O)c3ccc(C)cc3)c2=O)c1,IC50,[2],15 nM
CCCOc1cccc([C@H](CC(=O)O)NC(=O)Nc2c(O)c(C)cn(Cc3c(Cl)cccc3OCC)c2=O)c1,IC50,[1],3 nM
Cc1cn(Cc2ccccc2Cl)c(=O)c(NC(=O)N[C@@H](CC(=O)O)c2cccc(OC(C)C)c2)c1O,IC50,"Table 6, 30 minutes at 37° C.",3 nM
CCOc1cccc([C@H](CC(=O)O)NC(=O)Nc2c(O)c(CC)cn(Cc3c(Cl)cccc3OCC)c2=O)c1,IC50,"Table 6, 30 minutes at 37° C.",4 nM
Cc1ccc([C@H](CC(=O)O)NC(=O)Nc2c(O)c(C)cn(Cc3cc(OC(C)C)ccc3Cl)c2=O)cc1,IC50,"Table 6, 30 minutes at 37° C.",7 nM
O=C(O)C[C@H](NC(=O)Nc1cccn(Cc2cccc(Cl)c2)c1=O)c1ccc2c(c1)OCO2,IC50,"Table 4, 30 minutes at 37° C.",800 nM
Cc1ccc([C@H](CC(=O)O)NC(=O)Nc2cccn(Cc3c(O)cccc3Cl)c2=O)cc1,IC50,[2],100 nM
